These results are taken from ChEMBL document CHEMBL4406831, “Discovery of fused heterocyclic carboxamide derivatives as novel α7-nAChR agonists: Synthesis, preliminary SAR and biological evaluation” (Eur J Med Chem, 2019).

Holding throughout (assay type): cell-based
For assay [1], the target named is T1, Neuronal acetylcholine receptor subunit alpha-7 (Homo sapiens, UniProt P36544). As to the kind of experiment: Agonist activity at human alpha7 nAChR expressed in Xenopus laevis oocytes assessed as induction of channel current at 100 uM at -90 mV holding potential by two-electrode voltage clamp method relative to acetylcholine. Background: Two-electrode voltage clamp holds a large cell at a set potential and records current.
T1 sequence (P36544 whole entry): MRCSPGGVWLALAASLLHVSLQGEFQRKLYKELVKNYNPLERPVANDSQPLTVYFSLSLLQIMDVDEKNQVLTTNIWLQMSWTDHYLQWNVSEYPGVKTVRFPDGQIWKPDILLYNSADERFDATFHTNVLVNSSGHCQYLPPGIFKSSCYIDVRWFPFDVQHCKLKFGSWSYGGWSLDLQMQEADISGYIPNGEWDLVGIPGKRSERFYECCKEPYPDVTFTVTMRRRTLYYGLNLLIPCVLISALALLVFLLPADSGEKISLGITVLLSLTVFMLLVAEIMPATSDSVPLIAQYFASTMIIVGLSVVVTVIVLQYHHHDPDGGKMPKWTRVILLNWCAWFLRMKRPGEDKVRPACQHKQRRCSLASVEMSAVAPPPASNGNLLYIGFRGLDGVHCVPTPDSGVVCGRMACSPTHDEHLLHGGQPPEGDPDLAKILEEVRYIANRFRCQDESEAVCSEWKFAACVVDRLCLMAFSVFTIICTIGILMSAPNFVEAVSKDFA

The target in assay [2] is T1, Neuronal acetylcholine receptor subunit alpha-7. The assay can be described thus: Agonist activity at human alpha7 nAChR expressed in Xenopus laevis oocytes assessed as induction of channel current at 10 uM at -90 mV holding potential by two-electrode voltage clamp method relative to acetylcholine.
The target in assay [3] is T2, Neuronal acetylcholine receptor; alpha3/beta4 (Homo sapiens, UniProt P30926+P32297). The assay can be described thus: Agonist activity at alpha3beta4 nAChR (unknown origin) expressed in Xenopus laevis oocytes assessed as induction of current at 100 uM at -90 mV holding potential by two-electrode voltage clamp method.
T2 sequence (P30926 whole entry): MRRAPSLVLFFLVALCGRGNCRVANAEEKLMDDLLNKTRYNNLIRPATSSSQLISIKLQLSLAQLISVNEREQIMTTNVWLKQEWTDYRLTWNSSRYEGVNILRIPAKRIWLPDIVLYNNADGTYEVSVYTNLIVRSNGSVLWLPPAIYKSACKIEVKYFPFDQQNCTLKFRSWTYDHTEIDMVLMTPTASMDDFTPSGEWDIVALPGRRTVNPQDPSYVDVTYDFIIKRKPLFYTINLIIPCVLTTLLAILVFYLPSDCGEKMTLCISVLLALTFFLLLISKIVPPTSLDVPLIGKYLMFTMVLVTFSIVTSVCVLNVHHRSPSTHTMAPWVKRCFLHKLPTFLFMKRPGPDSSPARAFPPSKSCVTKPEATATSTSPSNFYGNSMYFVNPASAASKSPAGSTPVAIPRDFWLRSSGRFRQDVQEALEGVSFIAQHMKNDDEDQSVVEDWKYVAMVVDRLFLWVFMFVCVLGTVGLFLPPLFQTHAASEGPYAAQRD
T2 sequence (P32297 whole entry): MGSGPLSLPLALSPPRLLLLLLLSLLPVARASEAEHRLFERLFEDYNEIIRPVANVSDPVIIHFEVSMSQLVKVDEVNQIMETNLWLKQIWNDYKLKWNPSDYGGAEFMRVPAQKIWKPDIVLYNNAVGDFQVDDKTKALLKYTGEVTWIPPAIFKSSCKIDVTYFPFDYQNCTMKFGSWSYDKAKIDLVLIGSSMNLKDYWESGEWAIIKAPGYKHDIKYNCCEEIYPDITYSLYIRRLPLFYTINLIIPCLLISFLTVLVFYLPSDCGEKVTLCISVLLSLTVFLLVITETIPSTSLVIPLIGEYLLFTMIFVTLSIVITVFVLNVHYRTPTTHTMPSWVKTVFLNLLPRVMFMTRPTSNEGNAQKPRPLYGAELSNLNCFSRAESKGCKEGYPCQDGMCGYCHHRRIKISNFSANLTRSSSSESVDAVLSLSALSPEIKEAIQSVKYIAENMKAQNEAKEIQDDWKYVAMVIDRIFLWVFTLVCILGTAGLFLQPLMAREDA
The target in assay [4] is T1, Neuronal acetylcholine receptor subunit alpha-7. As to the kind of experiment: Agonist activity at human alpha7 nAChR expressed in Xenopus laevis oocytes assessed as peak current amplitude at -90 mV holding potential by two-electrode voltage clamp method relative to acetylcholine.
For assay [5] the target is unchanged. The assay can be described thus: Agonist activity at human alpha7 nAChR expressed in Xenopus laevis oocytes assessed as induction of channel current at -90 mV holding potential by two-electrode voltage clamp method.
Assay [6] addresses T2, Neuronal acetylcholine receptor; alpha3/beta4. As to the kind of experiment: Antagonist activity at alpha3beta4 nAChR (unknown origin) expressed in Xenopus laevis oocytes assessed as inhibition of acetylcholine-induced channel current at -90 mV holding potential by two-electrode voltage clamp method.
The target in assay [7] is T3, 5-hydroxytryptamine receptor 3A (Homo sapiens, UniProt P46098).
T3 sequence (P46098 whole entry): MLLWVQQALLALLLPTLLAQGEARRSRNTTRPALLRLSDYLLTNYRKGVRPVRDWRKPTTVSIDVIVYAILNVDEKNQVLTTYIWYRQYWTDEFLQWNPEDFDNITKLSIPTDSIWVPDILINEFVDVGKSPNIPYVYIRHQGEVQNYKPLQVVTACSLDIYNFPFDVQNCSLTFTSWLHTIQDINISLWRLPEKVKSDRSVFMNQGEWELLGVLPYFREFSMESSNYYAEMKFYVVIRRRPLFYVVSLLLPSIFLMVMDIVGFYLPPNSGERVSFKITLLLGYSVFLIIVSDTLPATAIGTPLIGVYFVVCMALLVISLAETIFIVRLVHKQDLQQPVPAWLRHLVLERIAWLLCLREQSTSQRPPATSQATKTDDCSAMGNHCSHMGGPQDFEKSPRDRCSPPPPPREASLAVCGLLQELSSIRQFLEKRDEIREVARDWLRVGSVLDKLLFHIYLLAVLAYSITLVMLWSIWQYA
The assay can be described thus: (§1) Antagonist activity at human 5-HT3A receptor expressed in Xenopus laevis oocytes at -90 mV holding potential in presence of serotonin by two-electrode voltage clamp method.

For assay [8], the target named is T4, 5-hydroxytryptamine receptor 3A (Homo sapiens) (UniProt P46098).
T4 sequence (whole entry): T3 sequence (P46098 whole entry)
The description is as §1.

Assay [9] addresses T5, Neuronal acetylcholine receptor; alpha4/beta2 (Homo sapiens, UniProt P17787+P43681). As to the kind of experiment: Agonist activity at alpha4beta2 nAChR (unknown origin) expressed in Xenopus laevis oocytes at -90 mV holding potential by two-electrode voltage clamp method.
The target of assay [10] is T1, Neuronal acetylcholine receptor subunit alpha-7. The assay can be described thus: Agonist activity at human alpha7 nAChR expressed in Xenopus laevis oocytes assessed as increase in channel current at 10 uM at -90 mV holding potential in presence of 10 nM alpha7 nAChR antagonist, MLA measured after 10 mins by two-electrode voltage clamp method.
For assay [11] the target is unchanged. As to the kind of experiment: Agonist activity at human alpha7 nAChR expressed in Xenopus laevis oocytes assessed as channel current at 10 uM at -90 mV holding potential in presence of 10 nM alpha7 nAChR antagonist, MLA by two-electrode voltage clamp method.
The target in assay [12] is T4, 5-hydroxytryptamine receptor 3A (Homo sapiens). The assay can be described thus: Antagonist activity at human 5-HT3A receptor expressed in Xenopus laevis oocytes at 10 uM at -90 mV holding potential in presence of serotonin by two-electrode voltage clamp method.
In assay [13] the target is T1, Neuronal acetylcholine receptor subunit alpha-7. As to the kind of experiment: Agonist activity at human alpha7 nAChR expressed in Xenopus laevis oocytes preincubated with 1 uM alpha7 type-2 PAM PNU-120596 at -90 mV holding potential by two-electrode voltage clamp method.
Assay [14] deals with T5, Neuronal acetylcholine receptor; alpha4/beta2. As to the kind of experiment: Agonist activity at alpha4beta2 nAChR (unknown origin) expressed in Xenopus laevis oocytes assessed as induction of current at 10 uM at -90 mV holding potential by two-electrode voltage clamp method.
Assay [15] has as its target T4, 5-hydroxytryptamine receptor 3A (Homo sapiens). The assay can be described thus: Agonist activity at human 5-HT3A receptor expressed in Xenopus laevis oocytes at 10 uM at -90 mV holding potential by two-electrode voltage clamp method.
Assay [16] is filed under the species Homo sapiens. The assay can be described thus: Selectivity index, ratio of IC50 for alpha3beta4 nAChR (unknown origin) expressed in Xenopus laevis oocytes to EC50 for human alpha7 nAChR expressed in Xenopus laevis oocytes.
In assay [17] the target is T1, Neuronal acetylcholine receptor subunit alpha-7. The assay can be described thus: Induction of desensitization at human alpha7 nAChR expressed in Xenopus laevis oocytes assessed as inhibition of acetylcholine induced current treated with compound prior to 100 uM acetylcholine challenge at -90 mV holding potential by two-electrode voltage clamp method.
The target in assay [18] is T2, Neuronal acetylcholine receptor; alpha3/beta4. As to the kind of experiment: Agonist activity at alpha3beta4 nAChR (unknown origin) expressed in Xenopus laevis oocytes assessed as channel current at 10 uM at -90 mV holding potential by two-electrode voltage clamp method.
The species named for assay [19] is Homo sapiens. The assay can be described thus: Selectivity index, ratio of EC50 for alpha4beta2 nAChR (unknown origin) expressed in Xenopus laevis oocytes to EC50 for human alpha7 nAChR expressed in Xenopus laevis oocytes.

Activity calls are given as the source filed them. The calls are words filed in the database; no cut-off is given here.

T5 sequence (P17787 whole entry): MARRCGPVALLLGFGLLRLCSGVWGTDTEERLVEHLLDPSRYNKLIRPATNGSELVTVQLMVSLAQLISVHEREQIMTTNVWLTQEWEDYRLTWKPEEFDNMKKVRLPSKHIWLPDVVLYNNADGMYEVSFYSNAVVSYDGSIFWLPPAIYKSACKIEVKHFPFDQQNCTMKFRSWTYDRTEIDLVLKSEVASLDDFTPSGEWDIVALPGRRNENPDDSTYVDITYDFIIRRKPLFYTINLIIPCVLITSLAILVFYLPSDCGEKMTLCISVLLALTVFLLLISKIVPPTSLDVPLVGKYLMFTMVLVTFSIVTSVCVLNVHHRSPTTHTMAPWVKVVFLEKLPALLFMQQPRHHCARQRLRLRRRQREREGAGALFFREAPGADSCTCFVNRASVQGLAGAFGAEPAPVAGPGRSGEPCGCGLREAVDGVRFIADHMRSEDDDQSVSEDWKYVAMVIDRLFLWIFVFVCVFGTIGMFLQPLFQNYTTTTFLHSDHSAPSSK
T5 sequence (P43681 whole entry): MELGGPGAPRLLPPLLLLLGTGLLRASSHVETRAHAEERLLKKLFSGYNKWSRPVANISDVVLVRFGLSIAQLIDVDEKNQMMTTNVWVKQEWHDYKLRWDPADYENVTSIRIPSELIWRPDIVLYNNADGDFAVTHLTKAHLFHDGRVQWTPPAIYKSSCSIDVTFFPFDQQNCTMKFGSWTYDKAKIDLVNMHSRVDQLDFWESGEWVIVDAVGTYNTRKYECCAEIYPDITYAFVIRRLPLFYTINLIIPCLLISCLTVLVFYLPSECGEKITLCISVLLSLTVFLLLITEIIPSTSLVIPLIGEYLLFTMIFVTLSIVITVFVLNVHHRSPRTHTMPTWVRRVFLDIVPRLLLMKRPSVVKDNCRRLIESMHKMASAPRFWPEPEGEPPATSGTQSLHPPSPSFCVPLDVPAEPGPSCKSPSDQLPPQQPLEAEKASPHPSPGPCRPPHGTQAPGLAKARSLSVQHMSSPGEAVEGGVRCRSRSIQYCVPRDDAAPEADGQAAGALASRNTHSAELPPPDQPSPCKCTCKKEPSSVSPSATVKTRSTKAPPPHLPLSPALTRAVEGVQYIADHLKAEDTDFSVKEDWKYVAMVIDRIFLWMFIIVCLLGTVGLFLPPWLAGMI

As to `CC(C)(C)c1ccc(-c2ccc3c(ccc4cc(C(=O)N[C@H]5CN6CCC5CC6)cn43)c2)cc1`, the Activity in assay [1] and in [2] was 60 to 120% throughout.
Consider `O=C(N[C@H]1CN2CCC1CC2)c1cc2ccc3cc(C(F)(F)F)ccc3n2c1`, for which the Activity in assay [2] was under 60%.
Same read-out and setting: with `O=C(N[C@H]1CN2CCC1CC2)c1cc2ccc3cc(C4CC4)ccc3n2c1` the figure was under 60%.
Regarding `O=C(N[C@H]1CN2CCC1CC2)c1cc2ccc3cc(OCc4ccccc4)ccc3n2c1`, the Activity in [1] is under 60%.
In the case of `O=C(N[C@H]1CN2CCC1CC2)c1cc2ccc3cc(-c4cccnc4)ccc3n2c1`, the Activity in assay [1] was 60 to 120%; in [2] it was under 60%.
On to `CC(=O)OCC[N+](C)(C)C`, for which the result in assay [3] was Active.
Turning to `CCCOc1ccc2c(ccc3cc(C(=O)N[C@H]4CN5CCC4CC5)cn32)c1`, the Activity in [1] and in [2] was under 60% in each case.
Regarding `CC(C)Oc1ccc2c(ccc3cc(C(=O)N[C@H]4CN5CCC4CC5)cn32)c1`, the result in assay [1] was inactive.
As for `O=C(N[C@H]1CN2CCC1CC2)c1cc2ccc3cc(N4CCCC4)ccc3n2c1`, the Activity in assay [2] is under 60%.
As for `O=C(N[C@H]1CN2CCC1CC2)c1cc2ccc3cc(-c4ccccc4)ccc3n2c1`, the Activity in assay [1] was 60 to 120%; in assay [2], under 60%.
Turning to `O=C(N[C@H]1CN2CCC1CC2)c1cc2ccc3cc(-c4ccsc4)ccc3n2c1`, in assay [1], the Activity is under 60%.
The same measure, in the same setting: the result for `O=C(N[C@H]1CN2CCC1CC2)c1cc2ccc3cc(OCc4cccnc4)ccc3n2c1` reads 60 to 120%; that for `O=C(N[C@H]1CN2CCC1CC2)c1cc2ccc3cc(OCc4ccc(F)cc4)ccc3n2c1`, under 60%.
With `O=C(N[C@H]1CN2CCC1CC2)c1cc2cccc(Cl)c2s1` [ENCENICLINE], the maximum response (Emax) – broadly, the size of the effect at its maximum, as opposed to the concentration needed – in assay [4] came to 27.6%. Also, the 50% effective concentration (EC50) (usually the concentration needed to bring the measured effect to its halfway point) in assay [5] turned out to be 250 nM.
As to `O=C(N[C@H]1CN2CCC1CC2)c1cc2ccc3cc(F)ccc3n2c1`, the Emax in assay [4] stood at 58.6%. Besides, the EC50 in assay [5] stood at 8270 nM. In addition, the Activity in assay [2] fell in the range of 60 to 120%.
As for `O=C(N[C@H]1CN2CCC1CC2)c1cc2ccc3cc(Cl)ccc3n2c1`, in assay [2], the Activity was under 60%.
On to `Cc1ccccc1-c1ccc2c(ccc3cc(C(=O)N[C@H]4CN5CCC4CC5)cn32)c1`, for which the maximal response (Emax) in assay [4] worked out at 23.1%. In assay [5], the EC50 was 3200 nM. Further, the Activity was over 120% in [1] and 60 to 120% in assay [2].
Consider `O=C(N[C@H]1CN2CCC1CC2)c1cc2ccc3cc(OC4CCC4)ccc3n2c1`, for which the Activity in assay [1] is under 60%.
Consider `COc1ccc2c(ccc3cc(C(=O)N[C@H]4CN5CCC4CC5)cn32)c1`, for which, in assay [2], the Activity was under 60%.
As for `O=C(N[C@H]1CN2CCC1CC2)c1cc2n(c1)CCC2`, the Activity in assay [1] is under 60%.
Same read-out and setting: with `O=C(N[C@H]1CN2CCC1CC2)c1cc2n(c1)CCCC2` the figure was under 60%.
In the case of `O=C(N[C@H]1CN2CCC1CC2)c1cc2ccc3cc(OC(F)F)ccc3n2c1`, the Activity in assay [1] was 60 to 120%; in assay [2], under 60%.
Regarding `O=C(N[C@H]1CN2CCC1CC2)c1cc2ccc3ccccc3n2c1`, the IC50 (as a rule, the concentration needed to halve the response being measured) in assay [6] stood at 10100 nM; in assay [7], 710 nM; in [17], 21.2 nM. In addition, the inhibition entry in assay [8] and in assay [17] was “Dose-dependent effect” throughout. In addition, in assay [4], the Emax was found to be 72.4%. Also, the half-maximal effective concentration (EC50) in [5] is 1880 nM; in assay [9], 6140 nM; in assay [13] it was 120 nM. Moreover, the outcome in assay [10] and in [14] was Active. Also, the result in assay [11], in assay [15] and in assay [18] was inactive. Moreover, in [12], the inhibition result was “Active”. In addition, the Activity entry in assay [13] is “Dose-dependent effect”; in assay [2], 60 to 120%. Further, in assay [16], the Ratio IC50/EC50 came to 5. Besides, the Ratio EC50 in [19] worked out at 3.
With `O=C(N[C@H]1CN2CCC1CC2)c1cc2ccc3cc(Br)ccc3n2c1`, the Activity in assay [2] was under 60%.
Take `O=C(N[C@H]1CN2CCC1CC2)c1cc2ccc3cc(-c4ccc(F)cc4)ccc3n2c1`: the outcome in assay [1] was inactive.
The same measure, in the same setting: the result for `C=CCOc1ccc2c(ccc3cc(C(=O)N[C@H]4CN5CCC4CC5)cn32)c1` reads “inactive”.
With `CC(C)COc1ccc2c(ccc3cc(C(=O)N[C@H]4CN5CCC4CC5)cn32)c1`, the outcome in assay [2] was inactive.
For `O=C(N[C@H]1CN2CCC1CC2)c1cc2ccc3cc(-c4ccncc4)ccc3n2c1`, the Activity in assay [1] was under 60%.
Turning to `CCCC(C)Oc1ccc2c(ccc3cc(C(=O)N[C@H]4CN5CCC4CC5)cn32)c1` (stereo partly specified), the result in [1] was inactive.
On the same count and under the same terms, with `Cc1cc(-c2ccc3c(ccc4cc(C(=O)N[C@H]5CN6CCC5CC6)cn43)c2)ccn1` the figure was under 60%.
Consider `Cc1ccc2c(ccc3cc(C(=O)N[C@H]4CN5CCC4CC5)cn32)c1`, for which the Emax in assay [4] is 29.2%. In addition, the 50% effective concentration (EC50) in [5] was 1270 nM. Also, the Activity in assay [1] and in assay [2] was over 120% throughout.
As to `CCC(CC)Oc1ccc2c(ccc3cc(C(=O)N[C@H]4CN5CCC4CC5)cn32)c1`, in assay [1], the result was inactive.
With `O=C(N[C@H]1CN2CCC1CC2)c1cc2ccc3cc(N4CCCCC4)ccc3n2c1`, the Activity in assay [2] was under 60%.
`C#CCOc1ccc2c(ccc3cc(C(=O)N[C@H]4CN5CCC4CC5)cn32)c1`: in [4], the Emax came out at 34.5%. For the same compound, the 50% effective concentration (EC50) in assay [5] came out at 7630 nM. Also, the Activity in assay [2] is 60 to 120%.
As for `O=C(N[C@H]1CN2CCC1CC2)c1cc2ccc3cc(O)ccc3n2c1`, the Emax in assay [4] worked out at 47.3%. The EC50 in assay [5] was found to be 2000 nM. Also, the Activity in assay [1] is over 120%.
